In US12195482B1 (Arcus Biosciences, Inc., priority 2022, dated 2025):

Legend:
Axl = biological target: T1, Axl (Homo sapiens, UniProt P30530); assay: Biochemical potency, HTRF KinEASE-TK kinase assay; parameters: purchased Invitrogen; details: 5 nM AXL, 700 μM ATP
T1 sequence (P30530 26-894): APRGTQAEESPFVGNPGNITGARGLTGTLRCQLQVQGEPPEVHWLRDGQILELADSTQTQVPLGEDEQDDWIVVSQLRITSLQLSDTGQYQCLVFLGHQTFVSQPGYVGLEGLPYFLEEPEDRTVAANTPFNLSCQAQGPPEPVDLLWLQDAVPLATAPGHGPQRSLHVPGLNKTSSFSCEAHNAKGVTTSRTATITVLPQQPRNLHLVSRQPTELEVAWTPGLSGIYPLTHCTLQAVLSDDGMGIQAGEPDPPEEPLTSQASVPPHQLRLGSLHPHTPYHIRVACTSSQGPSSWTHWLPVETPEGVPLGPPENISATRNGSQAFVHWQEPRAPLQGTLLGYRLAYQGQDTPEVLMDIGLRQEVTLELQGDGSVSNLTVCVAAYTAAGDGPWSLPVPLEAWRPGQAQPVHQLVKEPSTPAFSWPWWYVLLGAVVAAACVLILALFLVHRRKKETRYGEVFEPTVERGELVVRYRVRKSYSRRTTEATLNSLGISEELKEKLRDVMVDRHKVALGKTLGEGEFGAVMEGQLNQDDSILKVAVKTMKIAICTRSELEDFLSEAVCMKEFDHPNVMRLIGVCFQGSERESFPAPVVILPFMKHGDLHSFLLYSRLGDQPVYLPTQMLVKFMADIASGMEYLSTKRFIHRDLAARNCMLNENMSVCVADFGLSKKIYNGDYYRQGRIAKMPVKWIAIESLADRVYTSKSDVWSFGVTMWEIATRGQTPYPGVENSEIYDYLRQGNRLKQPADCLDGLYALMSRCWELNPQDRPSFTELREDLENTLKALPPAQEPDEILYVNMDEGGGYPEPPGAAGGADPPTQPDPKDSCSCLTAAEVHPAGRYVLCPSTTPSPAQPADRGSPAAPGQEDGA
In short: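 Compounds preincubated 1 h at RT with enzyme in 50 mM HEPES pH 7.4, 10 mM MgCl2, 0.01% BSA, 1 mM DTT; reactions then ran 2 h at RT with 5 nM AXL or 1 nM TYRO3/MER, 800 nM TK substrate-biotin, 700 μM ATP, 1% DMSO. HTRF 665/620 ratio read; percent activity calculated.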

p-AXL = biological target: T2, p-AXL (Homo sapiens, UniProt P30530); assay: Axl phosphorylation inhibition ELISA in HEK293T cells transfected with NanoLuc-tagged AXL; type: cell-based; details: 1 h compound incubation, media (OptiMEM)
T2 construct: expressed in transfected cells; host or cells: HEK293T
T2 sequence (P30530 26-894): T1 sequence (P30530 26-894)
In short: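 Phospho-AXL detected by luminescence of NanoLuc tag after capture of cell lysate on biotinylated anti-phospho-tyrosine mAb plates (2 h). Lysates came from transiently transfected HEK293T cells treated 1 h at 37° C with serial 2-fold dilutions (22 points). IC50 by standard 4-parameter logistic fitting.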

Structure (SMILES) | IC50 (Axl) [µM] | IC50 (p-AXL) [µM]
COc1cccc(-c2ccc(-c3n[nH]c4ncc(-c5ccc6c(c5)CC[C@@H](N5C7COCC5C7)CC6)cc34)cc2)n1 [Example 162, 6-[(7S)-2-{3-[4-(6-Methoxypyridin-2-yl)phenyl]-2H-pyrazolo[3,4-b]pyridin-5-yl}-6,7,8,9-tetrahydro-5H-benzo[7]annulen-7-yl]-3-oxa-6-azabicyclo[3.1.1]heptane] | < 0.1 | –
Cc1cnc(-c2ccc(-c3c[nH]c4ncc(-c5ccc6c(c5)CC[C@@H](N5C7COCC5C7)CC6)cc34)cc2)c(C)n1 [Example 50, 6-[(7S)-2-{3-[4-(3,5-Dimethylpyrazin-2-yl)phenyl]-1H-pyrrolo[2,3-b]pyridin-5-yl}-6,7,8,9-tetrahydro-5H-benzo[7]annulen-7-yl]-3-oxa-6-azabicyclo[3.1.1]heptane] | < 0.1 | < 0.1
C[C@@H]1CCCN1[C@@]1(C)CCc2ccc(-c3cnc4[nH]nc(-c5ccc(-c6nccs6)cc5)c4c3)cc2CC1 [Example 91, 2-(4-{5-[(7S)-7-Methyl-7-[(2R)-2-methylpyrrolidin-1-yl]-6,7,8,9-tetrahydro-5H-benzo[7]annulen-2-yl]-2H-pyrazolo[3,4-b]pyridin-3-yl}phenyl)-1,3-thiazole] | < 0.1 | 0.1 to 1
CN(C)C(=O)c1ccccc1-c1ccc(-c2c[nH]c3ncc(-c4ccc5c(c4)CC[C@@H](N4C6COCC4C6)CC5)cc23)cc1 [Example 92, N,N-Dimethyl-4′-{5-[(7S)-7-{3-oxa-6-azabicyclo[3.1.1]heptan-6-yl}-6,7,8,9-tetrahydro-5H-benzo[7]annulen-2-yl]-1H-pyrrolo[2,3-b]pyridin-3-yl}-[1,1′-biphenyl]-2-carboxamide] | < 0.1 | < 0.1
Cc1cncnc1-c1ccc(-c2c[nH]c3ncc(-c4ccc5c(c4)CC[C@@H](N4C6COCC4C6)CC5)cc23)cc1 [Example 47, 6-[(7S)-2-{3-[4-(5-Methylpyrimidin-4-yl)phenyl]-1H-pyrrolo[2,3-b]pyridin-5-yl}-6,7,8,9-tetrahydro-5H-benzo[7]annulen-7-yl]-3-oxa-6-azabicyclo[3.1.1]heptane] | < 0.1 | < 0.1
Cc1ccnnc1-c1ccc(-c2n[nH]c3ncc(-c4ccc5c(c4)CC[C@@H](N4C6COCC4C6)CC5)cc23)nc1 [Example 56, 6-[(7S)-2-{3-[5-(4-Methylpyridazin-3-yl)pyridin-2-yl]-1H-pyrazolo[3,4-b]pyridin-5-yl}-6,7,8,9-tetrahydro-5H-benzo[7]annulen-7-yl]-3-oxa-6-azabicyclo[3.1.1]heptane] | < 0.1 | < 0.1
Cc1ccnnc1-c1ccc(-c2c[nH]c3ncc(-c4ccc5c(c4)CC[C@@](C)(N4CCC[C@H]4C)CC5)cc23)cc1 [Example 51, 4-methyl-3-(4-{5-[(7S)-7-Methyl-7-[(2R)-2-methylpyrrolidin-1-yl]-6,7,8,9-tetrahydro-5H-benzo[7]annulen-2-yl]-1H-pyrrolo[2,3-b]pyridin-3-yl}phenyl)pyridazine] | < 0.1 | < 0.1
c1cncc(-c2ccc(-c3n[nH]c4ncc(-c5ccc6c(c5)CC[C@@H](N5C7COCC5C7)CC6)cc34)cc2)c1 [Example 157, 6-[(7S)-2-{3-[4-(Pyridin-3-yl)phenyl]-2H-pyrazolo[3,4-b]pyridin-5-yl}-6,7,8,9-tetrahydro-5H-benzo[7]annulen-7-yl]-3-oxa-6-azabicyclo[3.1.1]heptane] | < 0.1 | –
Clc1cccnc1-c1ccc(-c2c[nH]c3ncc(-c4ccc5c(c4)CC[C@@H](N4C6COCC4C6)CC5)cc23)cc1 [Example 43, 6-[(7S)-2-{3-[4-(3-Chloropyridin-2-yl)phenyl]-1H-pyrrolo[2,3-b]pyridin-5-yl}-6,7,8,9-tetrahydro-5H-benzo[7]annulen-7-yl]-3-oxa-6-azabicyclo[3.1.1]heptane] | < 0.1 | –
COc1cc(-c2n[nH]c3ncc(-c4ccc5c(c4)CC[C@@H](N4C6COCC4C6)CC5)cc23)ccc1-c1ccccn1 [Example 160, 6-[(7S)-2-{3-[3-Methoxy-4-(pyridin-2-yl)phenyl]-2H-pyrazolo[3,4-b]pyridin-5-yl}-6,7,8,9-tetrahydro-5H-benzo[7]annulen-7-yl]-3-oxa-6-azabicyclo[3.1.1]heptane] | < 0.1 | –
Fc1cccnc1-c1ccc(-c2c[nH]c3ncc(-c4ccc5c(c4)CC[C@@H](N4C6COCC4C6)CC5)cc23)cc1 [Example 42, 6-[(7S)-2-{3-[4-(3-Fluoropyridin-2-yl)phenyl]-1H-pyrrolo[2,3-b]pyridin-5-yl}-6,7,8,9-tetrahydro-5H-benzo[7]annulen-7-yl]-3-oxa-6-azabicyclo[3.1.1]heptane] | < 0.1 | –

Next, values leading:

IC50 (Axl) [µM] | IC50 (p-AXL) [µM] | Structure (SMILES)
< 0.1 | – | COc1cc(-c2c[nH]c3ncc(-c4ccc5c(c4)CC[C@@H](N4C6COCC4C6)CC5)cc23)ccc1-c1ccccn1 [Example 161, 6-[(7S)-2-{3-[3-Methoxy-4-(pyridin-2-yl)phenyl]-1H-pyrrolo[2,3-b]pyridin-5-yl}-6,7,8,9-tetrahydro-5H-benzo[7]annulen-7-yl]-3-oxa-6-azabicyclo[3.1.1]heptane]
< 0.1 | 0.1 to 1 | COc1ccnc(-c2ccc(-c3n[nH]c4ncc(-c5ccc6c(c5)CC[C@@H](N5C7COCC5C7)CC6)cc34)cc2)c1C [Example 87, 6-[(7S)-3-[3-[4-(4-Methoxy-3-methylpyridin-2-yl)phenyl]-1H-pyrazolo[3,4-b]pyridin-5-yl]-6,7,8,9-tetrahydro-5H-benzo[7]annulen-7-yl]-3-oxa-6-azabicyclo[3.1.1]heptane]
< 0.1 | 0.1 to 1 | COc1ccnc(-c2ccc(-c3c[nH]c4ncc(-c5ccc6c(c5)CC[C@@H](N5C7COCC5C7)CC6)cc34)cc2)c1C [Example 86, 6-[(7S)-3-[3-[4-(4-Methoxy-3-methylpyridin-2-yl)phenyl]-1H-pyrrolo[2,3-b]pyridin-5-yl]-6,7,8,9-tetrahydro-5H-benzo[7]annulen-7-yl]-3-oxa-6-azabicyclo[3.1.1]heptane]
< 0.1 | < 0.1 | Cc1cnc(-c2ccc(-c3c[nH]c4ncc(-c5ccc6c(c5)CC[C@@](C)(N5CCC[C@H]5C)CC6)cc34)cc2)c(C)n1 [Example 57, 3,5-Dimethyl-2-(4-{5-[(7S)-7-methyl-7-[(2R)-2-methylpyrrolidin-1-yl]-6,7,8,9-tetrahydro-5H-benzo[7]annulen-2-yl]-1H-pyrrolo[2,3-b]pyridin-3-yl}phenyl)pyrazine]
< 0.1 | – | Fc1cc(-c2c[nH]c3ncc(-c4ccc5c(c4)CC[C@@H](N4C6COCC4C6)CC5)cc23)ccc1-c1ccccn1 [Example 40, 6-[(7S)-2-{3-[3-Fluoro-4-(pyridin-2-yl)phenyl]-1H-pyrrolo[2,3-b]pyridin-5-yl}-6,7,8,9-tetrahydro-5H-benzo[7]annulen-7-yl]-3-oxa-6-azabicyclo[3.1.1]heptane]
< 0.1 | 0.1 to 1 | c1cc(-n2cc(-c3c[nH]c4ncc(-c5ccc6c(c5)CC[C@@H](N5C7COCC5C7)CC6)cc34)cn2)ccn1 [Example 45, 6-[(7S)-2-{3-[1-(Pyridin-4-yl)-1H-pyrazol-4-yl]-1H-pyrrolo[2,3-b]pyridin-5-yl}-6,7,8,9-tetrahydro-5H-benzo[7]annulen-7-yl]-3-oxa-6-azabicyclo[3.1.1]heptane]
< 0.1 | 0.1 to 1 | c1cc(-c2ccc(-c3c[nH]c4ncc(-c5ccc6c(c5)CC[C@@H](N5C7COCC5C7)CC6)cc34)cc2)ccn1 [Example 41, 6-[(7S)-2-{3-[4-(Pyridin-4-yl)phenyl]-1H-pyrrolo[2,3-b]pyridin-5-yl}-6,7,8,9-tetrahydro-5H-benzo[7]annulen-7-yl]-3-oxa-6-azabicyclo[3.1.1]heptane]
< 0.1 | < 0.1 | N#Cc1cccnc1-c1ccc(-c2n[nH]c3ncc(-c4ccc5c(c4)CC[C@@H](N4C6COCC4C6)CC5)cc23)cc1 [Example 52, 2-(4-{5-[(7S)-7-{3-Oxa-6-azabicyclo[3.1.1]heptan-6-yl}-6,7,8,9-tetrahydro-5H-benzo[7]annulen-2-yl]-1H-pyrazolo[3,4-b]pyridin-3-yl}phenyl)pyridine-3-carbonitrile]
< 0.1 | – | Cc1nncn1-c1ccc(-c2n[nH]c3ncc(-c4ccc5c(c4)CC[C@@H](N4C6COCC4C6)CC5)cc23)cc1 [Example 11, 6-[(7S)-2-{3-[4-(3-Methyl-4H-1,2,4-triazol-4-yl)phenyl]-1H-pyrazolo[3,4-b]pyridin-5-yl}-6,7,8,9-tetrahydro-5H-benzo[7]annulen-7-yl]-3-oxa-6-azabicyclo[3.1.1]heptane]
